Source: patent US10696615B2, “Prenylated hydroxystilbenes” (The University of Sydney, priority 2011, dated 2020)

Key:
[1] = tested on: SK-MEL-28; assay: NCI in vitro cancer screen, Melanoma; type: cell-based, human; conditions: SK-MEL-28, Melanoma
[2] = tested on: SF-295; assay: NCI in vitro cancer screen, CNS Cancer; type: cell-based, human; conditions: SF-295, CNS Cancer
[3] = tested on: LOX IMVI; assay: NCI in vitro cancer screen, Melanoma; type: cell-based, human; conditions: Melanoma
[4] = tested on: MALME-3M; assay: NCI in vitro cancer screen, Melanoma; type: cell-based, human; conditions: MALME-3M, Melanoma
[5] = tested on: MCF7; assay: NCI in vitro cancer screen, Breast Cancer; type: cell-based, human; conditions: MCF7, Breast Cancer
[6] = tested on: KM12; assay: NCI in vitro cancer screen, Colon Cancer; type: cell-based, human; conditions: KM12, Colon Cancer
[7] = tested on: PC-3; assay: NCI in vitro cancer screen, Prostate Cancer; type: cell-based, human; conditions: PC-3, Prostate Cancer
[8] = tested on: U251; assay: NCI in vitro cancer screen, CNS Cancer; type: cell-based, human; conditions: U251, CNS Cancer
[9] = tested on: NCI-H460; assay: NCI in vitro cancer screen, Non-Small Cell Lung Cancer; type: cell-based, human; conditions: NCI-H460, Non-Small Cell Lung Cancer
[10] = tested on: SN12C; assay: NCI in vitro cancer screen, Renal Cancer; type: cell-based, human; conditions: Renal Cancer
[11] = tested on: IGROV1; assay: NCI in vitro cancer screen, Ovarian Cancer; type: cell-based, human; conditions: IGROV1, Ovarian Cancer
[12] = tested on: NCI-H522; assay: NCI in vitro cancer screen, Non-Small Cell Lung Cancer; type: cell-based, human; conditions: NCI-H522, Non-Small Cell Lung Cancer
[13] = tested on: UACC-257; assay: NCI in vitro cancer screen, Melanoma; type: cell-based, human; conditions: UACC-257, Melanoma
[14] = tested on: SW-620; assay: NCI in vitro cancer screen, Colon Cancer; type: cell-based, human; conditions: SW-620, Colon Cancer
[15] = tested on: SNB-19; assay: NCI in vitro cancer screen, CNS Cancer; type: cell-based, human; conditions: SNB-19, CNS Cancer
[16] = tested on: HOP-92; assay: NCI in vitro cancer screen, Non-Small Cell Lung Cancer; type: cell-based, human; conditions: HOP-92, Non-Small Cell Lung Cancer
[17] = tested on: NCI-H226; assay: as above; type: cell-based, human; conditions: NCI-H226, Non-Small Cell Lung Cancer
[18] = tested on: MDA-MB-468; assay: NCI in vitro cancer screen, Breast Cancer; type: cell-based, human; conditions: MDA-MB-468, Breast Cancer
[19] = tested on: MDA-MB-435; assay: NCI in vitro cancer screen, Melanoma; type: cell-based, human; conditions: MDA-MB-435, Melanoma
[20] = tested on: MOLT-4; assay: NCI in vitro cancer screen, Leukemia; type: cell-based, human; conditions: MOLT-4, Leukemia
[21] = tested on: A498; assay: NCI in vitro cancer screen, Renal Cancer; type: cell-based, human; conditions: A498, Renal Cancer
[22] = tested on: SF-539; assay: NCI in vitro cancer screen, CNS Cancer; type: cell-based; conditions: SF-539, CNS Cancer
[23] = tested on: TK-10; assay: NCI in vitro cancer screen, Renal Cancer; type: cell-based, human; conditions: TK-10, Renal Cancer
[24] = tested on: SR; assay: NCI in vitro cancer screen, Leukemia; type: cell-based, human; conditions: Leukemia
[25] = tested on: MDA-MB-231 (MDA-MB-231/ATCC); assay: NCI in vitro cancer screen, Breast Cancer; type: cell-based, human; conditions: MDA-MB-231/ATCC, Breast Cancer
[26] = tested on: UO-31; assay: NCI in vitro cancer screen, Renal Cancer; type: cell-based, human; conditions: UO-31, Renal Cancer
[27] = tested on: NCI-H23; assay: NCI in vitro cancer screen, Non-Small Cell Lung Cancer; type: cell-based, human; conditions: NCI-H23, Non-Small Cell Lung Cancer
[28] = tested on: CAKI-1; assay: NCI in vitro cancer screen, Renal Cancer; type: cell-based, human; conditions: CAKI-1, Renal Cancer
[29] = Homo sapiens, read-out: LC50 (the source's name)

CC(C)=CCOc1cc(O)cc(/C=C/c2ccc(O)c(O)c2)c1CC=C(C)C [USYDS14, (E)-2-(3-methyl-2-buten-1-yl)-3-(3-methyl-2-butenyloxy)-3′,4′,5-trihydroxystilbene]
GI50 ([1]; Homo sapiens): 3.05 µM | LC50 ([1]; Homo sapiens): 41.6 µM | TGI [1]: 16.4 µM | GI50 ([2]; Homo sapiens): 3.91 µM | CC50 [2, 29]: 43.1 µM | TGI [2]: 15.3 µM | GI50 ([3]; Homo sapiens): 1360 nM | CC50 [3, 29]: 8.35 µM | TGI [3]: 3.37 µM | GI50 ([4]; Homo sapiens): 3.14 µM | CC50 [4, 29]: 54.8 µM | TGI [4]: 21.8 µM | GI50 ([5]; Homo sapiens): 2740 nM | CC50 [5, 29]: 41.9 µM | TGI [5]: 11.8 µM | GI50 ([6]; Homo sapiens): 3.74 µM | CC50 [6, 29]: 57.4 µM | TGI [6]: 14.4 µM | GI50 ([7]; Homo sapiens): 6.65 µM | CC50 [7, 29]: 55 µM | TGI [7]: 21.6 µM | GI50 ([8]; Homo sapiens, U-251): 3.09 µM | CC50 ([8]; Homo sapiens, U-251, read-out: LC50 (the source's name)): 39.4 µM | TGI [8]: 12.7 µM | GI50 ([9]; Homo sapiens): 3.87 µM | CC50 [9, 29]: 51.2 µM | TGI [9]: 14.9 µM | GI50 ([10]; Homo sapiens): 3.61 µM | CC50 [10, 29]: 42 µM | TGI [10]: 15.1 µM | GI50 ([11]; Homo sapiens, IGROV-1): 3.65 µM | CC50 ([11]; Homo sapiens, IGROV-1, read-out: LC50 (the source's name)): 65.4 µM | TGI [11]: 13.7 µM | GI50 ([12]; Homo sapiens): 750 nM | CC50 [12, 29]: 5.85 µM | TGI [12]: 2.26 µM | GI50 ([13]; Homo sapiens): 10.2 µM | CC50 [13, 29]: 54 µM | TGI [13]: 23.5 µM | GI50 ([14]; Homo sapiens): 2880 nM | CC50 [14, 29]: 63.8 µM | TGI [14]: 16.7 µM | GI50 ([15]; Homo sapiens): 5.01 µM | CC50 [15, 29]: 52.2 µM | TGI [15]: 20.1 µM | TGI [16]: 7.58 µM | GI50 ([16]; Homo sapiens): 1490 nM | CC50 [16, 29]: 32.9 µM | GI50 ([17]; Homo sapiens): 1720 nM | LC50 (50% lethal concentration) ([17]; Homo sapiens): 7.52 µM | TGI [17]: 3.6 µM | GI50 ([18]; Homo sapiens): 1420 nM | CC50 [18, 29]: 16.4 µM | TGI [18]: 4.12 µM | GI50 ([19]; Homo sapiens): 373 nM | CC50 [19, 29]: 40 µM | TGI [19]: 8.45 µM | GI50 ([20]; Homo sapiens): 4.03 µM | CC50 [20, 29]: > 100 µM | TGI [20]: 21 µM | TGI [21]: 26.6 µM | GI50 ([21]; Homo sapiens): 13 µM | CC50 [21, 29]: 54.6 µM | GI50 ([22]; Homo sapiens): 2960 nM | CC50 [22, 29]: 37.8 µM | TGI [22]: 10.5 µM | GI50 ([23]; Homo sapiens): 3.79 µM | LC50 ([23]; Homo sapiens): 35.4 µM | TGI [23]: 12.1 µM | GI50 ([24]; Homo sapiens): 670 nM | CC50 [24, 29]: > 100 µM | TGI [24]: 24.6 µM | GI50 ([25]; Homo sapiens): 3.15 µM | CC50 [25, 29]: 45.3 µM | TGI [25]: 14.3 µM | GI50 ([26]; Homo sapiens): 3.71 µM | CC50 [26, 29]: 46.3 µM | TGI [26]: 17.9 µM | GI50 ([27]; Homo sapiens): 2920 nM | LC50 ([27]; Homo sapiens): 57.6 µM | TGI [27]: 17.3 µM | TGI [28]: 17.5 µM | GI50 ([28]; Homo sapiens): 3.59 µM | CC50 [28, 29]: 45.4 µM
